Assays:
[1] = target: Beta Secretase enzyme (BACE) (Homo sapiens (Human), UniProt P56817); test: In vitro enzymatic BACE FRET assay; assay type: biochemical; settings: read-out: BACE1 Enzyme assay IC50
Cathepsin D (Cat D) = Cathepsin D (Cat D) (Homo sapiens (Human), UniProt P07339); test: In vitro enzymatic Cathepsin D (Cat D) FRET assay; assay type: biochemical; settings: read-out: CatD IC50
BACE = BACE (Homo sapiens (Human), UniProt P56817); test: In vitro BACE cell-based assay (Aβ40 in conditioned medium, sandwich ELISA)
BACE, sequence (P56817 46-501, species assumed): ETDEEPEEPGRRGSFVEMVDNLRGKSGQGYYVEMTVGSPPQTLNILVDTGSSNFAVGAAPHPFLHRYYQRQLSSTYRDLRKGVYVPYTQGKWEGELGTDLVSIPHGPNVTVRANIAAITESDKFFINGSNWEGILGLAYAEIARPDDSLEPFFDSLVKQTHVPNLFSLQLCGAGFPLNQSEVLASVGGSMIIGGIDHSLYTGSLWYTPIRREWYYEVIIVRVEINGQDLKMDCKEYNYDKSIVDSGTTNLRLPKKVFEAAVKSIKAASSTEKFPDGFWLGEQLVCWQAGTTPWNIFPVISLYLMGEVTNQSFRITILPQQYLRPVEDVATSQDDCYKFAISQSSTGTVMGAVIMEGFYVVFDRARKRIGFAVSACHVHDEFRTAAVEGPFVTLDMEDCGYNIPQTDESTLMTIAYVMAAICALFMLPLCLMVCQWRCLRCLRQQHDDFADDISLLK

Beta Secretase enzyme (BACE), sequence (P56817 46-501): as the sequence (P56817 46-501, species assumed) above
Cathepsin D (Cat D), sequence (P07339 65-412, species assumed): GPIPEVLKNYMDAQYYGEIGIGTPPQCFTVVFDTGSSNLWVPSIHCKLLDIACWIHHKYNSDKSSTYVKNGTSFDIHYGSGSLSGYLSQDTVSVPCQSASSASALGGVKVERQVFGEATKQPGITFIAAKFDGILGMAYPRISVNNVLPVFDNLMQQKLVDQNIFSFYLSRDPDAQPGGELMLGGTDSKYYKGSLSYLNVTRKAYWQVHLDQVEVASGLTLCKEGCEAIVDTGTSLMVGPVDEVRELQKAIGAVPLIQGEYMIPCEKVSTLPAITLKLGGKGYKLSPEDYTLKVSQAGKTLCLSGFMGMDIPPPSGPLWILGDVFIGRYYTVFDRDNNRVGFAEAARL

Compound | IC50 [1] | IC50 (Cathepsin D (Cat D)) | IC50 (BACE)
NC1=N[C@@](CF)(c2nc(NC(=O)c3ccc(Cl)cn3)ccc2F)[C@@H]2C[C@@H]2O1 (stereo in doubt) [Example 106, N-(6-((1S,5R,6S)-3-amino-5-(fluoromethyl)-2-oxa-4-azabicyclo[4.1.0]hept-3-en-5-yl)-5-fluoropyridin-2-yl)-5-chloropicolinamide] | 0.252 µM | 216 µM | 0.0456 µM
CC#Cc1cncc(-c2ccc(F)c([C@]3(C(F)F)N=C(N)O[C@H]4C[C@H]43)c2)c1 [Example 430] | > 40 µM | 1020 µM | > 15.6 µM
COc1cnc(C(=O)Nc2ccc(F)c([C@@]3(C(F)F)N=C(N)O[C@@H]4C[C@@H]43)c2)c(OC)n1 [Example 84, N-(3-((1R,5S,6R)-3-amino-5-(difluoromethyl)-2-oxa-4-azabicyclo[4.1.0]hept-3-en-5-yl)-4-fluorophenyl)-3,5-dimethoxypyrazine-2-carboxamide] | 0.494 µM | > 400 µM | 0.361 µM
C#CCOc1cnc(C(=O)Nc2cc(F)c(F)c(C3(CF)N=C(N)O[C@H]4C[C@H]43)c2)cn1 (stereo in doubt) [Example 34, N-(3-((1S,5S,6S)-3-amino-5-(fluoromethyl)-2-oxa-4-azabicyclo[4.1.0]hept-3-en-5-yl)-4,5-difluorophenyl)-5-(prop-2-yn-1-yloxy)pyrazine-2-carboxamide] | 6.21 µM | 623 µM | 1.75 µM
CC(C)(C)OCC(=O)Nc1ccc(F)c([C@@]2(C(F)F)N=C(N)O[C@@H]3C[C@@H]32)c1 [Example 254, N-(3-((1R,5S,6R)-3-amino-5-(difluoromethyl)-2-oxa-4-azabicyclo[4.1.0]hept-3-en-5-yl)-4-fluorophenyl)-2-(tert-butoxy)acetamide] | > 40 µM | 2560 µM | > 15.6 µM
CCOc1cnc(C(=O)Nc2ccc(F)c([C@@]3(C(F)F)N=C(N)O[C@@H]4C[C@@H]43)c2)cn1 [Example 417, N-(3-((1R,5S,6R)-3-amino-5-(difluoromethyl)-2-oxa-4-azabicyclo[4.1.0]hept-3-en-5-yl)-4-fluorophenyl)-5-ethoxypyrazine-2-carboxamide] | 0.115 µM | 1470 µM | 0.0876 µM
C#CCOc1cnc(C(=O)Nc2ccc(Cl)c([C@@]3(CF)N=C(N)O[C@@H]4C[C@@H]43)c2)cn1 [Example 279, N-(3-((1R,5S,6R)-3-amino-5-(fluoromethyl)-2-oxa-4-azabicyclo[4.1.0]hept-3-en-5-yl)-4-chlorophenyl)-5-(prop-2-yn-1-yloxy)pyrazine-2-carboxamide] | 0.0056 µM | 124 µM | 0.0086 µM
NC1=N[C@](CF)(c2cc(NC(=O)c3nn(C(F)F)cc3Cl)cnc2F)[C@H]2C[C@H]2O1 [Example 207, N-(5-((1R,5S,6R)-3-amino-5-(fluoromethyl)-2-oxa-4-azabicyclo[4.1.0]hept-3-en-5-yl)-6-fluoropyridin-3-yl)-4-chloro-1-(difluoromethyl)-1H-pyrazole-3-carboxamide] | 0.0578 µM | 370 µM | 0.0176 µM
COc1cnc2c(Nc3ccc(F)c([C@@]4(C(F)F)N=C(N)O[C@@H]5C[C@@H]54)c3)nccc2n1 [Example 447, (1R,5S,6R)-5-(difluoromethyl)-5-(2-fluoro-5-((2-methoxypyrido[3,4-b]pyrazin-5-yl)amino)phenyl)-2-oxa-4-azabicyclo[4.1.0]hept-3-en-3-amine] | 0.139 µM | 501 µM | 0.167 µM
NC1=N[C@@](c2cc(NC(=O)c3coc(C(F)F)n3)ccc2F)(C(F)F)[C@H]2C[C@H]2O1 [Example 150, N-(3-((1R,5S,6R)-3-amino-5-(difluoromethyl)-2-oxa-4-azabicyclo[4.1.0]hept-3-en-5-yl)-4-fluorophenyl)-2-(difluoromethyl)oxazole-4-carboxamide 2,2,2-trifluoroacetate] | 0.0322 µM | 238 µM | 0.0182 µM

The next lines start with the values.

IC50 [1] | IC50 (Cathepsin D (Cat D)) | IC50 (BACE) | Compound
17.1 µM | 770 µM | > 15.6 µM | NC1=N[C@](c2cc(NC(=O)c3ccc(Cl)cn3)ccc2Cl)(C(F)F)[C@@H]2C[C@@H]2O1 [Example 92, N-(3-((1S,5R,6S)-3-amino-5-(difluoromethyl)-2-oxa-4-azabicyclo[4.1.0]hept-3-en-5-yl)-4-chlorophenyl)-5-chloropicolinamide]
2.74 µM | > 400 µM | 0.157 µM | COC[C@]1(c2cc(NC(=O)c3ccc(Cl)cn3)ccc2F)N=C(N)O[C@@H]2C[C@@H]21 [Example 82, N-(3-((1R,5S,6R)-3-amino-5-(methoxymethyl)-2-oxa-4-azabicyclo[4.1.0]hept-3-en-5-yl)-4-fluorophenyl)-5-chloropicolinamide]
0.0873 µM | 374 µM | 0.0339 µM | COc1cnc(C(=O)Nc2ccc(Cl)c([C@@]3(C(F)F)N=C(N)O[C@@H]4C[C@@H]43)c2)nc1 [Example 104, N-(3-((1R,5S,6R)-3-amino-5-(difluoromethyl)-2-oxa-4-azabicyclo[4.1.0]hept-3-en-5-yl)-4-chlorophenyl)-5-methoxypyrimidine-2-carboxamide]
0.129 µM | 640 µM | 0.984 µM | NC1=N[C@@](c2cc(NC(=O)c3cnc(OCC4CCOCC4)cn3)ccc2F)(C(F)F)[C@H]2C[C@H]2O1 [Example 412, N-(3-((1R,5S,6R)-3-amino-5-(difluoromethyl)-2-oxa-4-azabicyclo[4.1.0]hept-3-en-5-yl)-4-fluorophenyl)-5-((tetrahydro-2H-pyran-4-yl)methoxy)pyrazine-2-carboxamide]
35.9 µM | > 400 µM | > 15.6 µM | NC1=N[C@](c2cccc(NC(=O)c3ccc(Cl)cn3)c2)(C(F)F)[C@@H]2C[C@@H]2O1 [Example 264, N-(3-((1 S,5R,6S)-3-amino-5-(difluoromethyl)-2-oxa-4-azabicyclo[4.1.0]hept-3-en-5-yl)phenyl)-5-chloropicolinamide]
0.0469 µM | 2260 µM | 0.0105 µM | N#Cc1cnc(C(=O)Nc2ccc(F)c([C@]3(CF)N=C(N)O[C@H]4C[C@H]43)c2)c(Cl)c1 (racemic) [Example 227, N-(3-((1(R,S),5(S,R),6(R,S))-3-amino-5-(fluoromethyl)-2-oxa-4-azabicyclo[4.1.0]hept-3-en-5-yl)-4-fluorophenyl)-3-chloro-5-cyanopicolinamide]
0.048 µM | 924 µM | 0.146 µM | C=CCOc1cnc(C(=O)Nc2ccc(F)c([C@@]3(C(F)F)N=C(N)O[C@@H]4C[C@@H]43)c2)cn1 [Example 414, 5-(allyloxy)-N-(3-((1R,5S,6R)-3-amino-5-(difluoromethyl)-2-oxa-4-azabicyclo[4.1.0]hept-3-en-5-yl)-4-fluorophenyl)pyrazine-2-carboxamide]
0.0324 µM | 703 µM | 0.009 µM | Cc1cc(C#N)cnc1C(=O)Nc1ccc(F)c([C@@]2(CF)N=C(N)O[C@@H]3C[C@@H]32)c1 [Example 196, N-(3-((1R,5S,6R)-3-amino-5-(fluoromethyl)-2-oxa-4-azabicyclo[4.1.0]hept-3-en-5-yl)-4-fluorophenyl)-5-cyano-3-methylpicolinamide]
1.07 µM | 534 µM | 1.56 µM | N#Cc1csc(C(=O)Nc2ccc(F)c([C@@]3(C(F)F)N=C(N)O[C@@H]4C[C@@H]43)c2)c1 [Example 178, N-(3-((1R,5S,6R)-3-amino-5-(difluoromethyl)-2-oxa-4-azabicyclo[4.1.0]hept-3-en-5-yl)-4-fluorophenyl)-4-cyanothiophene-2-carboxamide]
0.0669 µM | 646 µM | 0.0122 µM | NC1=N[C@](CF)(c2cc(NC(=O)c3ccc(Cl)cn3)ccc2Cl)[C@H]2C[C@H]2O1 [Example 270, N-(3-((1R,5S,6R)-3-amino-5-(fluoromethyl)-2-oxa-4-azabicyclo[4.1.0]hept-3-en-5-yl)-4-chlorophenyl)-5-chloropicolinamide]
0.198 µM | 147 µM | 0.0243 µM | N#Cc1cnc2c(Nc3ccc(F)c([C@@]4(CF)N=C(N)O[C@@H]5C[C@@H]54)c3)ncnc2c1 [Example 393, 4-((3-((1R,5S,6R)-3-amino-5-(fluoromethyl)-2-oxa-4-azabicyclo[4.1.0]hept-3-en-5-yl)-4-fluorophenyl)amino)pyrido[3,2-d]pyrimidine-7-carbonitrile]
4.7 µM | 190 µM | 2 µM | NC1=N[C@@](c2cc(NC(=O)CC(F)(F)F)ccc2F)(C(F)F)[C@H]2C[C@H]2O1 [Example 251, N-(3-((1R,5S,6R)-3-amino-5-(difluoromethyl)-2-oxa-4-azabicyclo[4.1.0]hept-3-en-5-yl)-4-fluorophenyl)-3,3,3-trifluoropropanamide]
0.0559 µM | 2990 µM | 0.0524 µM | NC1=N[C@@](c2cc(NC(=O)c3ncc(Cl)cn3)ccc2F)(C(F)F)[C@H]2C[C@H]2O1 [Example 119, N-(3-((1R,5S,6R)-3-amino-5-(difluoromethyl)-2-oxa-4-azabicyclo[4.1.0]hept-3-en-5-yl)-4-fluorophenyl)-5-chloropyrimidine-2-carboxamide]
0.12 µM | 491 µM | 0.0214 µM | N#Cc1ccc(C(=O)Nc2cc(F)c(Cl)c([C@]3(CF)N=C(N)O[C@H]4C[C@H]43)c2)nc1 (racemic) [Example 136, N-(3-((1R/S,5S/R,6R/S)-3-amino-5-(fluoromethyl)-2-oxa-4-4-azabicyclo[4.1.0]hept-3-en-5-yl)-4-chloro-5-fluorophenyl)-5-cyanopicolinamide]
2.74 µM | 121 µM | 1.33 µM | NC1=N[C@@](c2cc(NCC3CCC3)ccc2F)(C(F)F)[C@H]2C[C@H]2O1 [Example 368, (1R,5S,6R)-5-(5-((cyclobutylmethyl)amino)-2-fluorophenyl)-5-(difluoromethyl)-2-oxa-4-azabicyclo[4.1.0]hept-3-en-3-amine]

Reference: patent US9085576B2 (AMGEN INC., priority 2013, dated 2015)
